Experimental data: ChEMBL document CHEMBL1201862, “PubChem BioAssay data set” (2004)
The source made the active and inactive calls. Where a SMILES comes first, the peptide text is derived from it. The star is where a group is joined. CH2Cl = ClC*

Tests used:
BJ [1] = experiment: BJ-TERT fibroblast viability loss – cell-based, RAS-independent, luminescence, dose response (AID 1933); assay type: functional; conditions: Homo sapiens
[2] = DRD fibroblast viability loss – cell-based, non-viral oncogenic, luminescence, dose response (AID 1934); assay type: functional; conditions: Homo sapiens
BJ [3] = experiment: cells; assay type: functional, cell-based; conditions: Homo sapiens
BJ [4] = experiment: BJ-TERT-LT-ST fibroblast viability loss – cell-based, RAS-independent, luminescence, dose response (AID 1935); assay type: functional; conditions: Homo sapiens;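 also: BJ fibroblasts immortalized with TERT plus LT and ST oncogenes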
[5] = reduction of Shn3 3'UTR-driven luciferase in osteoblasts – cell-based, Clone20 osteoblasts, firefly luciferase, cherry-picked, dose response (AID 624132); assay type: functional;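 also: firefly luciferase luminescence from reporter carrying the Shn3 3'UTR in osteoblasts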
[6] = microbe, parasite or virus in culture; assay type: functional; conditions: Mycobacterium tuberculosis
[7] = alpha-synuclein stem-loop luciferase translation blockers – H4 neuroglioma cells, luminescence, confirmation (AID 1988); assay type: functional, cell-based
[8] = loss of viability in HepG2 cells – cell-based, CellTiter-Glo, cherry-picked, cytotoxicity control for Shn3 inhibitor project, dose response (AID 624134); assay type: functional
[9] = HEK-293T viability loss after treatment – luminescence, T-cell screen hits, cytotoxicity control for TCR NF-kB inhibitor project, dose response (AID 489026); assay type: functional, cell-based;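 also: cells exposed to compound about 14 hours before the viability readout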
[10] = luciferase reporter signal suppression in cells – H4 neuroglioma cells, luminescence, dose response (AID 1990); assay type: functional, cell-based
BJ [11] = experiment: growth inhibition of engineered Ras-driven BJ cells – cell-based, alamar blue fluorescence, cherrypicked samples, dose response (AID 2631); assay type: functional; conditions: Homo sapiens;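 also: confirmatory dose-response assay in RAS-dependent BJ fibroblasts engineered with TERT, LT and ST, with cytotoxicity read by fluorescence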
[12] = non-specific 3'UTR reporter inhibition in Clone20-Shn3RL – cell-based, Renilla luciferase, cherry-picked, counter-screen for Shn3 inhibitor project, dose response (AID 624133); assay type: functional
[13] = Luminescence Cell-Based Dose Response HTS to Identify Inhibitors of 5'UTR Stem-Loop Driven Prion Protein mRNA Translation in H4 Neuroglioblastoma Cells. [Related pubchem assays: 1827 (Project Summary), 1813 (Primary HTS)]; assay type: functional
[14] = molecular target: T1, Sentrin-specific protease 7 (Homo sapiens, UniProt Q9BQF6); assay type: functional;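 also: Luminescence-based dose-response confirmation of ultra-high-throughput screening hits, measuring inhibition of SENP7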
T1 sequence (Q9BQF6 whole entry): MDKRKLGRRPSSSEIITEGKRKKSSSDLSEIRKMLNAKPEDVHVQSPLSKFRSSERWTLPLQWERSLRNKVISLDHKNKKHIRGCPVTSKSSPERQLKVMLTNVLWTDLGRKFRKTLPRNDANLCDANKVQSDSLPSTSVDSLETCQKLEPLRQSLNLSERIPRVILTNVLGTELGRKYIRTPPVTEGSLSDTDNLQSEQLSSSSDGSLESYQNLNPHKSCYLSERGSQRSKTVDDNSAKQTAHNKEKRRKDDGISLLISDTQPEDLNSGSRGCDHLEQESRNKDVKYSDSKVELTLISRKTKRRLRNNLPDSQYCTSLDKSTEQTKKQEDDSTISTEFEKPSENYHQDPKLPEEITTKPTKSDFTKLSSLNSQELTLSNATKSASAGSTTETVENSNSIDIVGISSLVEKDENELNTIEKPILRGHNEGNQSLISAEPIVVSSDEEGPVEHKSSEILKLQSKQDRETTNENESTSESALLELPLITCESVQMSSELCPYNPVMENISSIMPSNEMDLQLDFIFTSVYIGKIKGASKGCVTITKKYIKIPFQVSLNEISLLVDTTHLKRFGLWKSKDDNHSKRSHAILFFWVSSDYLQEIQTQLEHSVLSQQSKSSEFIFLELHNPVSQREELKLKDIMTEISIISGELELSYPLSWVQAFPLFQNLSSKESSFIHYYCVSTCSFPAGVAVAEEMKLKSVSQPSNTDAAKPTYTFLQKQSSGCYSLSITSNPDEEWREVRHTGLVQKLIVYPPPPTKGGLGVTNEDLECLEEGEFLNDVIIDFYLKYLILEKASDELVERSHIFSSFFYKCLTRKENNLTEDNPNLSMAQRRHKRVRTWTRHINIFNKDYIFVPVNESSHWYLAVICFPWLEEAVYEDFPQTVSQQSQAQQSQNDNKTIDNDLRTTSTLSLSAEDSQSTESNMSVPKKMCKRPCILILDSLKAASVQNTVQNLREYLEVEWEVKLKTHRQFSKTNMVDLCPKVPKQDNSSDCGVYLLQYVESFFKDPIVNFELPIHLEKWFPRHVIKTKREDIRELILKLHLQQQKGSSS

[15] = molecular target: T2, Sentrin-specific protease 6 (Homo sapiens, UniProt Q9GZR1); assay type: functional;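 also: Luminescence-based dose-response confirmatory assay of SENP6 inhibition, following up an ultra-high-throughput screen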
T2 sequence (Q9GZR1 whole entry): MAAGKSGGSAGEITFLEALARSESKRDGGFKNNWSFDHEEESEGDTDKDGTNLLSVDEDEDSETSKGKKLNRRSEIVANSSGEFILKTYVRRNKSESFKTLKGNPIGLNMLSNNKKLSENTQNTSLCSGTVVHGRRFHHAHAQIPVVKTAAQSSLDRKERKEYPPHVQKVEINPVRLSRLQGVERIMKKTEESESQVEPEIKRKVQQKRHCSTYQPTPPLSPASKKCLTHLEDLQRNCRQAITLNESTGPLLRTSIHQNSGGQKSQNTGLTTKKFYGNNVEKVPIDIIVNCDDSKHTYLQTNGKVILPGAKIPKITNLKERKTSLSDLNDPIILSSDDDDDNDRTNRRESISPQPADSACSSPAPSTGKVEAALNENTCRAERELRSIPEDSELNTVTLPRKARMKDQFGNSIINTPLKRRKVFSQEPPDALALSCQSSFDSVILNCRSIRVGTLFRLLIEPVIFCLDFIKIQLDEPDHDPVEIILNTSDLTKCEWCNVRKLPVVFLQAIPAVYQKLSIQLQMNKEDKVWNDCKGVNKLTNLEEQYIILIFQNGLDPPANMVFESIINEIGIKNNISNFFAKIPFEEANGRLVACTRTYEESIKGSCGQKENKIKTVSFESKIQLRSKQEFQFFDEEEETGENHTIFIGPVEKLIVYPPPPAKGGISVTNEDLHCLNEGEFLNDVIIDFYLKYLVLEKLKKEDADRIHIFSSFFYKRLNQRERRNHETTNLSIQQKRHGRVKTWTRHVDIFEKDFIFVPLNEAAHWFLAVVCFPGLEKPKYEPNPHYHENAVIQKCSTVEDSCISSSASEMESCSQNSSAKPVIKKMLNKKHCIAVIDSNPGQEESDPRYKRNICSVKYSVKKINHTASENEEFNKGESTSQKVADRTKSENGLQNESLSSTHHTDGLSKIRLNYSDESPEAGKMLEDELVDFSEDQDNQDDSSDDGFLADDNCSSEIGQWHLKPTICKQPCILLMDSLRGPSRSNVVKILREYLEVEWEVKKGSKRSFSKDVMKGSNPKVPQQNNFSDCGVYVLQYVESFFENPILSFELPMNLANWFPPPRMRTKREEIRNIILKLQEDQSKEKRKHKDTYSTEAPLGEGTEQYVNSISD

Caspase-3 = molecular target: T3, Caspase-3 (Homo sapiens, UniProt P42574); assay type: functional;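 also: Dose-response selectivity test against caspase-3 for candidate inhibitors of sentrin-specific proteases (SENPs)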
T3 sequence (P42574 whole entry): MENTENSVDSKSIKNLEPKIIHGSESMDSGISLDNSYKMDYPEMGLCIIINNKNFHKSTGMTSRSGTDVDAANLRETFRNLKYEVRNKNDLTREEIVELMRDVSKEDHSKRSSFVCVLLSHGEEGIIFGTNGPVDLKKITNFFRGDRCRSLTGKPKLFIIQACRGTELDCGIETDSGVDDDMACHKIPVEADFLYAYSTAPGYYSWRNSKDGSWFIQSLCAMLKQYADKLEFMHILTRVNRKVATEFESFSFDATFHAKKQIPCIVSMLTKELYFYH

[16] = molecular target: T4, Sentrin-specific protease 8 (Homo sapiens, UniProt Q96LD8); assay type: functional;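 also: luminescence read-out of SENP8 inhibition, dose-response confirmation following an ultra-high-throughput screen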
T4 sequence (Q96LD8 whole entry): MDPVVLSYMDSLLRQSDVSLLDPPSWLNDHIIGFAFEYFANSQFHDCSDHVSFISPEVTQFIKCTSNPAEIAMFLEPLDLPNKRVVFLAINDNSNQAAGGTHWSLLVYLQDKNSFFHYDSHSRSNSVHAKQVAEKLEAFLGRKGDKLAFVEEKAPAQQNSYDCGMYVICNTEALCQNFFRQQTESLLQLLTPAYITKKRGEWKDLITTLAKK

INS1 = experiment: INS-1E survival protection against cytokine death – cell-based, luminescence, retest, dose response (AID 449756); assay type: functional; conditions: Rattus norvegicus;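 also: cell death triggered by IL-1 beta plus TNF-alpha plus IFN-gamma mixture; protective hits raise ATP signal compared with cytokine alone wells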
cells [17] = assay type: functional, cell-based
[18] = molecular target: T5, Latent membrane protein 1 (Human herpesvirus 4 (strain B95-8), UniProt P03230); experiment: LMP1 TES1 pathway selectivity over dsRED control – imaging, HEK293T, dual-color eGFP/dsRED, cherry-picks, selectivity assay for LMP1 NF-kB inhibitor project, dose response (AID 588398); assay type: functional, cell-based
T5 sequence (P03230 whole entry): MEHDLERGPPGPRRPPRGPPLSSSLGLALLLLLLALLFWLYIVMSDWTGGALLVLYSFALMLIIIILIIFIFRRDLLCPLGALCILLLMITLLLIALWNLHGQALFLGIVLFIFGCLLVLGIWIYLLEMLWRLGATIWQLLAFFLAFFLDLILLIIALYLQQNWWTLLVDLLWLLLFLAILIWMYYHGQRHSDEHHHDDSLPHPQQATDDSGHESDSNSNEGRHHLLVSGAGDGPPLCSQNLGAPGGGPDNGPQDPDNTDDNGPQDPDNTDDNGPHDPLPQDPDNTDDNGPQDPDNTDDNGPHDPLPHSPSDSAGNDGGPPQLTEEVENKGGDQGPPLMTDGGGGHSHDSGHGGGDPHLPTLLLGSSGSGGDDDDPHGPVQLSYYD

HEK293 = experiment: EBV LMP1 TES2 canonical NF-kB signalling blockers – cell-based, HEK293, luciferase, cherry-pick, dose response (AID 588343); assay type: functional; conditions: Homo sapiens
[19] = NIH-3T3 fibroblast cytotoxicity, dose response, cytotoxicity control, cell-based, fluorescence, Alamar Blue, secondary assay (AID 2327); assay type: functional;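 also: NIH-3T3 mouse fibroblasts cultured with fluconazole at 8 µg/mL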
cells [20] = assay type: functional, cell-based; remark: listed apart in the source
[21] = fluconazole-exposed Candida albicans growth modulators – fluorescence, retest, confirmation (AID 2467); assay type: functional, cell-based
Interleukin-8 [22] = molecular target: T6, Interleukin-8 (Homo sapiens, UniProt P10145); experiment: Dose Response confirmation of uHTS small molecule hits for cystic fibrosis induced NFkb Inhibitors in a PAF-induced IL8 counterscreen.; assay type: functional; conditions: read-out: IC50_Mean
T6 sequence (P10145 whole entry): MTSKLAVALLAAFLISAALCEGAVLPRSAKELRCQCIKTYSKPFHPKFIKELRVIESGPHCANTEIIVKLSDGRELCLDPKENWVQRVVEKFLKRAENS

Interleukin-8 [23] = molecular target: T6, Interleukin-8; experiment: Dose Response confirmation of uHTS small molecule hits for cystic fibrosis induced NFkb Inhibitors in a TNFa-induced IL8 counterscreen.; assay type: functional; conditions: read-out: IC50_Mean

For `COc1cc(C2c3cc4c(cc3C(OC3OC5COC(c6cccs6)OC5C(O)C3O)C3COC(=O)C23)OCO4)cc(OC)c1O` (configuration not stated), the EC50 (BJ [1]) was 6.51 µM (inconclusive), the EC50 [2] was 8.49 µM (inconclusive) and the EC50 (BJ [3]) was 5.79 µM (inconclusive). For the same molecule, the EC50 (BJ [4]) was 4.24 µM (active), the AC50 [5] was 1.11 µM (active) and the CC50 [6] was 16.5 µM (active). The EC50 [7] was < 0.1 µM (active), the AC50 [8] was 14.3 µM (active) and the IC50 [9] was > 80 µM (inactive). For the same molecule, the EC50 [10] was 5.15 µM (active), the EC50 (BJ [11]) was 0.428 µM (active) and the AC50 [12] was 1.28 µM (active). The EC50 [13] was 15.5 µM (active).
For `Cc1ccc(-c2cnn(-c3cccc([N+](=O)[O-])c3)c2N)cc1`, the IC50 [14] was 8.04 µM (active), the IC50 [15] was > 100 µM (inactive) and the IC50 (Caspase-3) was 23.7 µM (active). The IC50 [16] was > 100 µM (inactive).
In the case of `COc1ccc2[nH]c(C(=O)N/N=C/c3ccc(O)cc3O)cc2c1`, the EC50 (BJ [1]) is reported as 12.2 µM (active), the EC50 [2] is reported as 9.2 µM (inconclusive) and the EC50 (BJ [3]) is reported as 10.8 µM (active). For the same molecule, the AC50 (INS1) was 0.694 µM (active), the EC50 (BJ [4]) was 10.1 µM (inconclusive) and the EC50 (cells [17]) was 9.59 µM (active). For the same molecule, the AC50 [18] was 20.3 µM (active) and the AC50 (HEK293) was 7.59 µM (active).
With `Oc1cnnc(N/N=C/c2ccccn2)n1` the EC50 (BJ [1]) was 7.32 µM (active), the EC50 [2] was 6.35 µM (active) and the EC50 (BJ [3]) was 4.19 µM (active). The AC50 (INS1) was 1.37 µM (active), the EC50 (BJ [4]) was 6.06 µM (active) and the EC50 [19] was 2.5 µM (inconclusive). The EC50 (cells [20]) was > 350 µM (not active), the EC50 (cells [17]) was 7.62 µM (active) and the EC50 (BJ [11]) was 0.798 µM (active). The EC50 [21] was 1.26 µM (active).
For `CC(=O)NC(CC(C)C)C(=O)NC(Cc1ccccc1)C(=O)CCl` (stereo not drawn) (Ac-Leu-Phe-CH2Cl; configuration not given here), the IC50 (Interleukin-8 [22]) was 1.04 µM (active) and the IC50 (Interleukin-8 [23]) was 3.63 µM (active).
